Source: the NIST ThermoML archive (doi:10.1021/je101178u)
“And” between values parts separate entries of the source, which are not always exact repeats. Equal entries are not always repeated.

Settings: Fluid (supercritical or subcritical phases); for viscosity: vibrating wire; for mass density: Buoyancy - hydrostatic balance with magnetic suspension - one sinker

CC [ethane]
Settings	mass density	viscosity
307.15 K, 5348.1 kPa	–	0.03109 mPa·s
307.15 K, 5348.3 kPa	282.116 kg/m3	0.03109 mPa·s
307.15 K, 5348.5 kPa	282.128 kg/m3	0.0311 mPa·s
307.15 K, 5348.6 kPa	282.136 kg/m3	0.0311 mPa·s
307.15 K, 5367.9 kPa	283.622 kg/m3	0.0314 mPa·s
307.15 K, 5368.5 kPa	283.666 kg/m3	0.0314 mPa·s
307.15 K, 5369.1 kPa	283.708 kg/m3	0.03144 mPa·s
307.15 K, 5369.4 kPa	283.73 kg/m3	0.03141 mPa·s
307.15 K, 5648.1 kPa	299.179 kg/m3	0.03389 mPa·s
307.15 K, 5648.3 kPa	299.189 kg/m3	0.03388 mPa·s
307.15 K, 5648.7 kPa	299.204 kg/m3	0.03392 mPa·s
307.15 K, 5648.8 kPa	299.208 kg/m3	0.03391 mPa·s
307.15 K, 5673.9 kPa	300.263 kg/m3 and 300.265 kg/m3	0.0342 mPa·s and 0.03418 mPa·s
307.15 K, 5674 kPa	300.27 kg/m3	0.03416 mPa·s
307.15 K, 5674.2 kPa	300.276 kg/m3	0.03417 mPa·s
307.15 K, 6326.2 kPa	319.788 kg/m3	0.03773 mPa·s
307.15 K, 6328.2 kPa	319.833 kg/m3	0.03774 mPa·s
307.15 K, 6328.5 kPa	319.84 kg/m3	0.03772 mPa·s
307.15 K, 6328.9 kPa	319.85 kg/m3	0.03776 mPa·s
307.15 K, 6343.9 kPa	320.187 kg/m3	0.03781 mPa·s
307.15 K, 6344.7 kPa	320.206 kg/m3	0.03783 mPa·s
307.15 K, 6346 kPa	320.235 kg/m3	0.03784 mPa·s
307.15 K, 6347.2 kPa	320.26 kg/m3	0.03783 mPa·s
307.15 K, 7598.2 kPa	341.1 kg/m3	0.04226 mPa·s
307.15 K, 7602.2 kPa	341.152 kg/m3	0.0423 mPa·s
307.15 K, 7603 kPa	341.162 kg/m3	0.0423 mPa·s
307.15 K, 7700.1 kPa	342.393 kg/m3	0.04256 mPa·s
307.15 K, 7700.8 kPa	342.402 kg/m3	0.04257 mPa·s
307.15 K, 7701.7 kPa	342.413 kg/m3	0.04257 mPa·s
307.15 K, 9627.4 kPa	361.481 kg/m3	0.04726 mPa·s
307.15 K, 9628.1 kPa	361.486 kg/m3	0.04728 mPa·s
307.15 K, 9703.1 kPa	362.086 kg/m3	0.04743 mPa·s
307.15 K, 9703.6 kPa	362.09 kg/m3	0.04742 mPa·s
307.15 K, 9705 kPa	362.101 kg/m3	0.04738 mPa·s
307.15 K, 12507 kPa	380.383 kg/m3	0.05257 mPa·s
307.15 K, 12508 kPa	380.388 kg/m3	0.05257 mPa·s
307.15 K, 12509 kPa	380.392 kg/m3	0.05255 mPa·s
307.15 K, 12544 kPa	380.585 kg/m3	0.05276 mPa·s
307.15 K, 12545 kPa	380.588 kg/m3	0.05268 mPa·s
307.15 K, 12549 kPa	380.613 kg/m3	0.05262 mPa·s
307.15 K, 12554 kPa	380.638 kg/m3	0.05258 mPa·s and 0.0526 mPa·s
307.15 K, 12558 kPa	380.661 kg/m3	0.05263 mPa·s
307.15 K, 12559 kPa	380.663 kg/m3	0.05263 mPa·s
307.15 K, 15941 kPa	396.414 kg/m3	0.05768 mPa·s
307.15 K, 15981 kPa	396.579 kg/m3	0.05768 mPa·s
307.15 K, 15985 kPa	396.595 kg/m3	0.05765 mPa·s
307.15 K, 15986 kPa	396.599 kg/m3	0.05767 mPa·s
307.15 K, 15987 kPa	396.601 kg/m3	0.05769 mPa·s
307.15 K, 16874 kPa	400.063 kg/m3 and 400.065 kg/m3	0.05888 mPa·s and 0.05882 mPa·s
307.15 K, 16875 kPa	400.066 kg/m3 and 400.067 kg/m3 and 400.068 kg/m3	0.05887 mPa·s [middle of 4 runs]
307.15 K, 16876 kPa	400.071 kg/m3 and 400.073 kg/m3	0.05885 mPa·s
307.15 K, 16877 kPa	400.075 kg/m3	0.05884 mPa·s
307.15 K, 19746 kPa	410.021 kg/m3 and 410.023 kg/m3	0.06238 mPa·s and 0.06241 mPa·s
307.15 K, 19749 kPa	410.03 kg/m3	0.06236 mPa·s
307.15 K, 19750 kPa	410.034 kg/m3	0.06242 mPa·s
307.15 K, 19751 kPa	410.039 kg/m3	0.0624 mPa·s
307.15 K, 23209 kPa	420.154 kg/m3	0.06633 mPa·s
307.15 K, 23210 kPa	420.157 kg/m3 and 420.156 kg/m3	0.06633 mPa·s and 0.0663 mPa·s and 0.06634 mPa·s
307.15 K, 24530 kPa	423.617 kg/m3 and 423.615 kg/m3	0.06776 mPa·s and 0.06778 mPa·s and 0.06781 mPa·s
307.15 K, 24531 kPa	423.619 kg/m3	0.06774 mPa·s and 0.06775 mPa·s
307.15 K, 25875 kPa	426.955 kg/m3	0.06913 mPa·s
307.15 K, 25877 kPa	426.961 kg/m3	0.06914 mPa·s
307.15 K, 25879 kPa	426.966 kg/m3	0.06906 mPa·s
307.15 K, 25881 kPa	426.969 kg/m3	0.06911 mPa·s
307.15 K, 29053 kPa	434.215 kg/m3	0.07235 mPa·s
307.15 K, 29057 kPa	434.225 kg/m3	0.07232 mPa·s
307.15 K, 29063 kPa	434.238 kg/m3	0.07227 mPa·s
307.15 K, 29978 kPa	436.186 kg/m3 and 436.185 kg/m3	0.07317 mPa·s and 0.07325 mPa·s
307.15 K, 29979 kPa	436.187 kg/m3	0.07323 mPa·s
307.15 K, 29980 kPa	436.189 kg/m3	0.07314 mPa·s and 0.07319 mPa·s
423.15 K, 95.75 kPa	0.82018 kg/m3	0.01277 mPa·s
423.15 K, 95.83 kPa	0.82091 kg/m3	0.01276 mPa·s
423.15 K, 117.47 kPa	1.0068 kg/m3	0.01277 mPa·s
423.15 K, 117.64 kPa	1.0082 kg/m3	0.01277 mPa·s
423.15 K, 117.73 kPa	1.009 kg/m3	0.01277 mPa·s
423.15 K, 226.59 kPa	1.947 kg/m3	0.0128 mPa·s
423.15 K, 226.76 kPa	1.9485 kg/m3	0.0128 mPa·s
423.15 K, 459.37 kPa	3.9693 kg/m3	0.01284 mPa·s
423.15 K, 459.46 kPa	3.9701 kg/m3	0.01284 mPa·s
423.15 K, 691.62 kPa	6.0097 kg/m3	0.0129 mPa·s
423.15 K, 691.95 kPa	6.0126 kg/m3	0.01289 mPa·s
423.15 K, 915.95 kPa	8.0024 kg/m3	0.01294 mPa·s
423.15 K, 916.03 kPa	8.0031 kg/m3	0.01294 mPa·s
423.15 K, 1136.5 kPa	9.9828 kg/m3	0.01298 mPa·s
423.15 K, 1136.7 kPa	9.9843 kg/m3	0.01298 mPa·s
423.15 K, 1357.6 kPa	11.99 kg/m3	0.01303 mPa·s
423.15 K, 1357.9 kPa	11.993 kg/m3	0.01303 mPa·s
423.15 K, 1576.5 kPa	13.999 kg/m3	0.01306 mPa·s and 0.01307 mPa·s
423.15 K, 1794.4 kPa	16.02 kg/m3	0.01312 mPa·s
423.15 K, 1795 kPa	16.025 kg/m3	0.01311 mPa·s
423.15 K, 2007.1 kPa	18.014 kg/m3	0.01317 mPa·s
423.15 K, 2007.2 kPa	18.015 kg/m3	0.01317 mPa·s
423.15 K, 2209.1 kPa	19.928 kg/m3	0.01322 mPa·s
423.15 K, 2209.2 kPa	19.929 kg/m3	0.01322 mPa·s
423.15 K, 3243 kPa	30.033 kg/m3	0.01352 mPa·s
423.15 K, 3244.5 kPa	30.048 kg/m3	0.01351 mPa·s
423.15 K, 4164.4 kPa	39.494 kg/m3	0.01382 mPa·s
423.15 K, 4164.5 kPa	39.495 kg/m3	0.01382 mPa·s
423.15 K, 4551.5 kPa	43.602 kg/m3	0.01395 mPa·s
423.15 K, 4555.3 kPa	43.642 kg/m3	0.01396 mPa·s
423.15 K, 5910.6 kPa	58.665 kg/m3	0.01454 mPa·s
423.15 K, 5914.3 kPa	58.707 kg/m3	0.01455 mPa·s
423.15 K, 6746.2 kPa	68.424 kg/m3	0.01497 mPa·s
423.15 K, 6746.9 kPa	68.432 kg/m3	0.01497 mPa·s
423.15 K, 7528 kPa	77.889 kg/m3	0.01542 mPa·s
423.15 K, 7530.1 kPa	77.915 kg/m3	0.01542 mPa·s
423.15 K, 8298.5 kPa	87.517 kg/m3	0.0159 mPa·s
423.15 K, 8300.8 kPa	87.546 kg/m3	0.0159 mPa·s
423.15 K, 9235.9 kPa	99.586 kg/m3	0.01656 mPa·s
423.15 K, 9238.5 kPa	99.621 kg/m3	0.01656 mPa·s
423.15 K, 10732 kPa	119.465 kg/m3	0.01774 mPa·s
423.15 K, 10733 kPa	119.476 kg/m3	0.01775 mPa·s
423.15 K, 12215 kPa	139.509 kg/m3	0.0191 mPa·s
423.15 K, 12218 kPa	139.549 kg/m3	0.01909 mPa·s
423.15 K, 13727 kPa	159.706 kg/m3	0.02062 mPa·s
423.15 K, 13728 kPa	159.722 kg/m3	0.02062 mPa·s
423.15 K, 15325 kPa	180.142 kg/m3	0.02234 mPa·s
423.15 K, 15327 kPa	180.168 kg/m3	0.02234 mPa·s
423.15 K, 16990 kPa	199.904 kg/m3	0.0242 mPa·s
423.15 K, 16991 kPa	199.911 kg/m3	0.02421 mPa·s
423.15 K, 16992 kPa	199.925 kg/m3	0.0242 mPa·s
423.15 K, 18872 kPa	220.003 kg/m3	0.02632 mPa·s
423.15 K, 18874 kPa	220.02 kg/m3	0.02632 mPa·s
423.15 K, 18878 kPa	220.065 kg/m3	0.02633 mPa·s
423.15 K, 21034 kPa	240.207 kg/m3 and 240.204 kg/m3	0.0287 mPa·s
423.15 K, 23414 kPa	259.265 kg/m3	0.03119 mPa·s
423.15 K, 23415 kPa	259.275 kg/m3	0.0312 mPa·s
423.15 K, 26527 kPa	280.132 kg/m3	0.03425 mPa·s
423.15 K, 26529 kPa	280.144 kg/m3	0.03424 mPa·s
423.15 K, 30162 kPa	300.101 kg/m3	0.03757 mPa·s
423.15 K, 30174 kPa	300.162 kg/m3	0.03757 mPa·s
423.15 K, 30181 kPa	300.195 kg/m3	0.03756 mPa·s
423.15 K, 30183 kPa	300.204 kg/m3	0.03758 mPa·s
